From ChEMBL document CHEMBL5500339, “4-Hydroxy-2-pyridone derivatives with antitumor activity produced by mangrove endophytic fungus Talaromyces sp. CY-3” (Eur J Med Chem, 2024)
pIC50: −log10 of the molar value. Active and inactive are the calls of the source. The rule behind the calls is not given here.

How the values were obtained:
NCI-H1703 [1] = experiment: Cytotoxicity against human NCI-H1703 cells assessed as reduction in cell viability incubated for 48 hrs by MTT assay; assay type: functional, cell-based; details: NCI-H1703, 48 h
A549 [2] = experiment: Inhibition of colony formation in human A549 cells at 20 uM incubated for 7 days by crystal violet staining analysis; assay type: functional, cell-based; details: time 7.0 day
A549 [3] = experiment: Antiproliferative activity against human A549 cells assessed as inhibition of cell growth at 10 uM incubated for 24 hrs by MTT assay; assay type: functional, cell-based
A549 [4] = experiment: Induction of cell cycle arrest in human A549 cells assessed as accumulation of cells at S phase at 10 uM incubated for 24 hrs by flow cytometric analysis (reference value: 31.31 %); assay type: functional
4T1 = experiment: Cytotoxicity against mouse 4T1 cells assessed as reduction in cell viability incubated for 48 hrs by MTT assay; assay type: functional, cell-based; details: 4T1, 48 h
NCI-H1703 [5] = experiment: Inhibition of colony formation in human NCI-H1703 cells at 5 uM incubated for 7 days by crystal violet staining analysis; assay type: functional, cell-based; details: time 7.0 day
A549 [6] = experiment: Induction of cell cycle arrest in human A549 cells assessed as downregulation of CDK4 protein expression incubated for 24 hrs by Western blotting analysis; assay type: functional, cell-based
A549 [7] = experiment: Induction of cell cycle arrest in human A549 cells assessed as downregulation of total Rb protein level at 20 uM incubated for 24 hrs by Western blotting analysis; assay type: functional, cell-based
B16-F10 = experiment: Cytotoxicity against mouse B16-F10 cells assessed as reduction in cell viability incubated for 48 hrs by MTT assay; assay type: functional, cell-based; details: B16-F10, 48 h
MC-38 = experiment: Cytotoxicity against mouse MC38 cells assessed as reduction in cell viability incubated for 48 hrs by MTT assay; assay type: functional, cell-based; details: MC-38, 48 h
NCI-H1703 [8] = experiment: Antiproliferative activity against human NCI-H1703 cells assessed as inhibition of cell growth incubated for 18 hrs by Edu incorporation based fluorescence microscopic analysis; assay type: functional
A549 [9] = experiment: Induction of cell cycle arrest in human A549 cells assessed as downregulation of Rb phosphorylation at Ser807/811 residue at 10 uM incubated for 24 hrs by Western blotting analysis; assay type: functional, cell-based
NCI-H1703 [10] = experiment: Antiproliferative activity against human NCI-H1703 cells assessed as inhibition of cell growth at 10 uM incubated for 24 hrs by MTT assay; assay type: functional, cell-based
PC-3 = experiment: Cytotoxicity against human PC-3 cells assessed as reduction in cell viability incubated for 48 hrs by MTT assay; assay type: functional, cell-based; details: PC-3, 48 h
NCI-H1703 [11] = experiment: Induction of cell cycle arrest in human NCI-H1703 cells assessed as downregulation of total Rb protein level at 5 uM incubated for 24 hrs by Western blotting analysis; assay type: functional, cell-based
A549 [12] = experiment: Induction of cell cycle arrest in human A549 cells assessed as accumulation of cells at G1/G0 phase at 10 uM incubated for 24 hrs by flow cytometric analysis (reference value: 51.49 %); assay type: functional
A549 [13] = experiment: Induction of cell cycle arrest in human A549 cells assessed as upregulation of p21 protein expression incubated for 24 hrs by Western blotting analysis; assay type: functional, cell-based
HCT-116 = experiment: Cytotoxicity against human HCT-116 cells assessed as reduction in cell viability incubated for 48 hrs by MTT assay; assay type: functional, cell-based; details: HCT-116, 48 h
NCI-H1703 [14] = experiment: Inhibition of colony formation in human NCI-H1703 cells at 2.5 uM incubated for 7 days by crystal violet staining analysis; assay type: functional, cell-based; details: time 7.0 day
NCI-H1703 [15] = experiment: Induction of cell cycle arrest in human NCI-H1703 cells assessed as downregulation of CDK4 protein expression incubated for 24 hrs by Western blotting analysis; assay type: functional, cell-based
NCI-H1703 [16] = experiment: Antiproliferative activity against human NCI-H1703 cells assessed as inhibition of cell growth at 20 uM incubated for 24 hrs by MTT assay; assay type: functional, cell-based
CT26 = experiment: Cytotoxicity against mouse CT26 cells assessed as reduction in cell viability incubated for 48 hrs by MTT assay; assay type: functional, cell-based; details: CT26, 48 h
SNB-19 = experiment: Cytotoxicity against human SNB-19 cells assessed as reduction in cell viability incubated for 48 hrs by MTT assay; assay type: functional, cell-based; details: SNB-19, 48 h
MDA-MB-435 = experiment: Cytotoxicity against human MDA-MB-435 cells assessed as reduction in cell viability incubated for 48 hrs by MTT assay; assay type: functional, cell-based; details: MDA-MB-435, 48 h
NCI-H1703 [17] = experiment: Induction of cell cycle arrest in human NCI-H1703 cells assessed as accumulation of cells at G1/G0 phase at 5 uM incubated for 24 hrs by flow cytometric analysis (reference value: 42.06 %); assay type: functional
A549 [18] = experiment: Induction of cell cycle arrest in human A549 cells assessed as downregulation of CyclinD1 protein expression incubated for 24 hrs by Western blotting analysis; assay type: functional, cell-based
A549 [19] = experiment: Antiproliferative activity against human A549 cells assessed as inhibition of cell growth at 20 uM incubated for 24 hrs by MTT assay; assay type: functional, cell-based
NCI-H1703 [20] = experiment: Induction of cell cycle arrest in human NCI-H1703 cells assessed as upregulation of p53 protein expression incubated for 24 hrs by Western blotting analysis; assay type: functional, cell-based
[21] = Cytotoxicity against mouse Lewis lung carcinoma cell line assessed as reduction in cell viability incubated for 48 hrs by MTT assay; assay type: functional, cell-based
NCI-H1703 [22] = experiment: Induction of cell cycle arrest in human NCI-H1703 cells assessed as downregulation of CyclinD1 protein expression incubated for 24 hrs by Western blotting analysis; assay type: functional, cell-based
A549 [23] = experiment: Induction of cell cycle arrest in human A549 cells assessed as accumulation of cells at S phase at 20 uM incubated for 24 hrs by flow cytometric analysis (reference value: 31.31 %); assay type: functional
A549 [24] = experiment: Induction of cell cycle arrest in human A549 cells assessed as upregulation of p53 protein expression incubated for 24 hrs by Western blotting analysis; assay type: functional, cell-based
NCI-H1703 [25] = experiment: Induction of cell cycle arrest in human NCI-H1703 cells assessed as accumulation of cells at G2/M phase at 5 uM incubated for 24 hrs by flow cytometric analysis (reference value: 29.88 %); assay type: functional
A549 [26] = experiment: Inhibition of colony formation in human A549 cells at 10 uM incubated for 7 days by crystal violet staining analysis; assay type: functional, cell-based; details: time 7.0 day
NCI-H1703 [27] = experiment: Induction of cell cycle arrest in human NCI-H1703 cells assessed as upregulation of p21 protein expression incubated for 24 hrs by Western blotting analysis; assay type: functional, cell-based
NCI-H1703 [28] = experiment: Induction of cell cycle arrest in human NCI-H1703 cells assessed as downregulation of Rb phosphorylation at Ser807/811 residue at 10 uM incubated for 24 hrs by Western blotting analysis; assay type: functional, cell-based
A549 [29] = experiment: Induction of cell cycle arrest in human A549 cells assessed as downregulation of Rb phosphorylation at Ser807/811 residue at 20 uM incubated for 24 hrs by Western blotting analysis; assay type: functional, cell-based
NCI-H1703 [30] = experiment: Induction of cell cycle arrest in human NCI-H1703 cells assessed as downregulation of total Rb protein level at 10 uM incubated for 24 hrs by Western blotting analysis; assay type: functional, cell-based
NCI-H1703 [31] = experiment: Induction of cell cycle arrest in human NCI-H1703 cells assessed as accumulation of cells at S phase at 5 uM incubated for 24 hrs by flow cytometric analysis (reference value: 28.06 %); assay type: functional
A549 [32] = experiment: Induction of cell cycle arrest in human A549 cells assessed as accumulation of cells at G2/M phase at 20 uM incubated for 24 hrs by flow cytometric analysis (reference value: 17.2 %); assay type: functional

## C/C=C/[C@@H]1[C@H]2C[C@@H](C)CC[C@@H]2C(C)=C[C@H]1C(=O)c1c(O)c(-c2ccc(O)cc2)c[nH]c1=O [ILICICOLIN H]
NCI-H1703 [1]
  pIC50: 5.18
A549 [2]
  inhibition: Active
A549 [3]
  Activity: Active
A549 [4]
  Activity: 10.84%
4T1
  pIC50: 4.86
NCI-H1703 [5]
  inhibition: Active
A549 [6]
  Activity: Dose-Dependent Effect
A549 [7]
  Activity: inactive
B16-F10
  pIC50: 4.67
MC-38
  pIC50: 4.71
NCI-H1703 [8]
  Activity: Dose-Dependent Effect
A549 [9]
  Activity: Active
NCI-H1703 [10]
  Activity: Active
PC-3
  pIC50: < 4.30
NCI-H1703 [11]
  Activity: inactive
A549 [12]
  Activity: 64.26%
A549 [13]
  Activity: Dose-Dependent Effect
HCT-116
  pIC50: 4.97
NCI-H1703 [14]
  inhibition: Active
NCI-H1703 [15]
  Activity: Dose-Dependent Effect
NCI-H1703 [16]
  Activity: Active
CT26
  pIC50: 4.71
SNB-19
  pIC50: 4.84
MDA-MB-435
  pIC50: 5.20
NCI-H1703 [17]
  Activity: 50.13%
A549 [18]
  Activity: Dose-Dependent Effect
A549 [19]
  Activity: Active
NCI-H1703 [20]
  Activity: Dose-Dependent Effect
[21]
  pIC50: 5.24
NCI-H1703 [22]
  Activity: Dose-Dependent Effect
A549 [23]
  Activity: 14.95%
A549 [24]
  Activity: Dose-Dependent Effect
NCI-H1703 [25]
  Activity: 26.61%
A549 [26]
  inhibition: Active
NCI-H1703 [27]
  Activity: Dose-Dependent Effect
NCI-H1703 [28]
  Activity: Active
A549 [29]
  Activity: Active
NCI-H1703 [30]
  Activity: inactive
NCI-H1703 [31]
  Activity: 23.26%
A549 [32]
  Activity: 12.93%
